Reference: BindingDB's records for doi:10.3109/14756366.2012.729827 (National University of Mexico City, 2013)

Target: T1, 3-oxo-5-alpha-steroid 4-dehydrogenase 2 (Homo sapiens, UniProt P31213)
T1 sequence (P31213 whole entry): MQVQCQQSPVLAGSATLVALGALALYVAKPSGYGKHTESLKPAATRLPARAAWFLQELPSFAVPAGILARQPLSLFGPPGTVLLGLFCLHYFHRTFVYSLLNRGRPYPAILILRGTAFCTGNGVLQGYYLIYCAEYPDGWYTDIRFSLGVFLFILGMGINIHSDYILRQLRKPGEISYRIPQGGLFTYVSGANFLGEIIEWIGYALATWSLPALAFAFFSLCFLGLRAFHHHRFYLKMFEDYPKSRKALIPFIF
Experiment: 5α-R2 Activity Assay
Experimental: The activity of the isozyme 5α-R type 2 was assayed as previously described [Hirosumi et al., J. Steroid Biochem. Mol. Biol., 52:357-363; Bratoeff et al., J. Steroid Biochem. Mol. Biol., 107:48-56].

Structure (SMILES) | IC50 [nM]
C[C@]12CC[C@H](OC(=O)c3ccc(F)cc3)CC1=CCC1C2CC[C@]2(C)C(=O)CCC12 (stereo partly drawn) [17-Oxaandrost-5-ene-3β-yl-p-fluorobenzoate (2)] | 3.58
C[C@]12CC[C@H](OC(=O)c3ccccc3)CC1=CCC1C2CC[C@]2(C)C(=O)CCC12 (stereo partly drawn) [17-Oxaandrost-5-ene-3β-yl-benzoate (1)] | > 100000
